Assay results taken from PMC5453931, “Cathelicidin-trypsin inhibitor loop conjugate represents a promising antibiotic candidate with protease stability” (Scientific Reports, 2017).
pKi: −log10 of the molar value. Converted amounts (≈) assume the structure as drawn. Where a SMILES comes first, the peptide text is derived from it. Bridges are numbered along the chain shown (N, C = ends).

Tests used:
[1] = system: 08030209; assay: microbe, parasite or virus in culture; assay type: cell-based, Arcyria cinerea; conditions: Fungi; two-fold broth microdilution, 37 °C, 18 h; mean of three independent experiments in duplicates
Experimental: (§1) A two-fold broth microdilution method described in our previous paper was used to determine the antimicrobial activities of parental and hybrid peptides. More than 30 strains including Gram-negative bacteria, Gram-positive bacteria and fungi were used in the current assay, in which the standard strains were stored in our lab and the clinical strains were collected from local hospitals. Briefly, bacteria were incubated in Mueller-Hinton broth (MH broth) at 37 °C to exponential phase and diluted to 10^6 CFU/mL. A serial dilution of peptide sample were prepared in 96-well microtiter plates (50 μL) and mixed with equal volume of microbial inoculums (50 μL). The plate was slowly shaken in the microbial incubator, and measured at A595 after incubation at 37 °C for 18 h. The minimal concentrations at which no microbial growth occurred were recorded as MIC (minimal inhibitory concentration) values. The traditional antibiotic ampicillin was used as positive control. The results are shown in an average of the MICs obtained from three independent experiments.

[2] = system: E. coli 08040726; assay type: cell-based; conditions: 08040726, 18 h
Experimental: as §1

[3] = biological target: trypsin; assay: Trypsin inhibition assay (NBLAN hydrolysis, Dixon method); assay type: biochemical; conditions: 50 mM Tris–HCl pH 7.8, trypsin 0.1 mg/mL, 5 min pre-incubation at 37 °C, substrate NBLAN 48, 96, 192 μg/mL, 405 nm
Experimental: The inhibition effect on the hydrolysis of synthetic chromogenic substrate by trypsin was assayed in 50 mM Tris–HCl, pH 7.8 buffer at room temperature. The trypsin of final concentration of 0.1 mg/mL and different amounts of the hybrid peptide (final concentrations ranging from 0 to 0.16 μg/mL) were pre-incubated for 5 min at 37 °C. N-α-Benzoyl-DL-arginine p-nitroanilide hydrochloride (NBLAN) was used as a substrate for trypsin. The reaction was initiated by the addition of NBLAN with a final concentration of 48, 96 and 192 μg/mL, respectively. The formation of yellow product, p-nitroaniline was monitored continuously at 405 nm[61]. The inhibition constant Ki of the hybrid peptides were determined according to the method of Dixon (1953)[62].

[4] = system: Staphylococcus epidermidis; assay: MIC, two-fold broth microdilution; assay type: cell-based; conditions: Gram-positive; two-fold broth microdilution, MH broth, 37 °C, 18 h; mean of three independent experiments in duplicates
Procedure, shortened: (§2)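 Two-fold broth microdilution in Mueller-Hinton broth: exponential-phase microbes were diluted to 10^6 CFU/mL, then mixed 1:1 with serially diluted peptide. Plates were shaken at 37 °C for 18 h and read at A595. MIC is the lowest concentration with no growth, averaged over three independent experiments.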

[5] = system: E. Coli 08032813; assay: MIC, two-fold broth microdilution; assay type: cell-based; conditions: Gram-negative; two-fold broth microdilution, MH broth, 37 °C, 18 h; mean of three independent experiments in duplicates
Procedure, shortened: as §2

[6] = system: Vibrio Parahaemolyticus; assay: MIC, two-fold broth microdilution; assay type: cell-based; conditions: Aquatic pathogenic bacteria; two-fold broth microdilution, 37 °C, 18 h; mean of three independent experiments in duplicates
Procedure, shortened: as §2

[7] = system: E. coli 08040726; assay: MIC, two-fold broth microdilution (second listing of the strain number); assay type: cell-based; conditions: Gram-negative, MH broth, 37 °C, 18 h, mean of three independent experiments in duplicates
Experimental: as §1

[8] = system: Vibrio harveyi; assay: microbe, parasite or virus in culture; assay type: cell-based; conditions: 18 h
Experimental: as §1

[9] = system: Bacillus subtilis 08042313; assay: microbe, parasite or virus in culture; assay type: cell-based; conditions: 08042313, 18 h
Experimental: as §1

[10] = system: S. Aureus 08032615; assay: microbe, parasite or virus in culture; assay type: cell-based; conditions: 08032615, 18 h
Experimental: as §1

[11] = system: K. Pneumoniae 08031012; assay: microbe, parasite or virus in culture; assay type: cell-based; conditions: Gram-negative; two-fold broth microdilution, MH broth, 37 °C, 18 h; mean of three independent experiments in duplicates
Experimental: as §1

[12] = system: Enterococcus faecium 08052315; assay: microbe, parasite or virus in culture; assay type: cell-based; conditions: 08052315, 18 h
Experimental: as §1

[13] = system: Proteus mirabilis 1376; assay: microbe, parasite or virus in culture; assay type: cell-based; conditions: 1376, 18 h
Experimental: as §1

[14] = system: Candida albicans 08030102; assay: microbe, parasite or virus in culture; assay type: cell-based; conditions: 08030102, 18 h
Experimental: as §1

[15] = system: Candida glabrata 08A802; assay: microbe, parasite or virus in culture; assay type: cell-based; conditions: 08A802, 18 h
Experimental: as §1

[16] = system: Escherichia coli ATCC25922; assay: microbe, parasite or virus in culture; assay type: cell-based; conditions: ATCC25922, 18 h
Experimental: as §1

[17] = system: P. Aeruginosa 08021015; assay: microbe, parasite or virus in culture; assay type: cell-based; conditions: 08021015, 18 h
Experimental: as §1

[18] = system: Vibrio brasiiensis; assay: microbe, parasite or virus in culture; assay type: cell-based; conditions: 18 h
Experimental: as §1

[19] = system: S. Aureus 08032810; assay: microbe, parasite or virus in culture; assay type: cell-based; conditions: Gram-positive; two-fold broth microdilution, MH broth, 37 °C, 18 h; mean of three independent experiments in duplicates
Experimental: as §1

[20] = system: S. Maltophilia 090223; assay: microbe, parasite or virus in culture; assay type: cell-based; conditions: 090223, 18 h
Experimental: as §1

[21] = system: Nocardia asteroides 08052412; assay: microbe, parasite or virus in culture; assay type: cell-based; conditions: 18 h
Experimental: as §1

[22] = system: S. Aureus 08032706; assay: microbe, parasite or virus in culture; assay type: cell-based; conditions: Gram-positive; two-fold broth microdilution, MH broth, 37 °C, 18 h; mean of three independent experiments in duplicates
Experimental: as §1

[23] = system: K. Pneumoniae 08040202; assay: microbe, parasite or virus in culture; assay type: cell-based; conditions: Gram-negative; two-fold broth microdilution, MH broth, 37 °C, 18 h; mean of three independent experiments in duplicates
Experimental: as §1

[24] = system: Vibrio cholerae; assay: microbe, parasite or virus in culture; assay type: cell-based; conditions: 18 h
Experimental: as §1

[25] = system: Aeromonas veronii; assay: microbe, parasite or virus in culture; assay type: cell-based; conditions: Aquatic pathogenic bacteria; two-fold broth microdilution, 37 °C, 18 h; mean of three independent experiments in duplicates
Experimental: as §1

[26] = system: Aeromonas sobria; assay: microbe, parasite or virus in culture; assay type: cell-based; conditions: Aquatic pathogenic bacteria; two-fold broth microdilution, 37 °C, 18 h; mean of three independent experiments in duplicates
Experimental: as §1

[27] = system: E. Coli 08032823; assay: microbe, parasite or virus in culture; assay type: cell-based; conditions: 08032823, 18 h
Experimental: as §1

[28] = system: Edwardsiella tarda; assay: microbe, parasite or virus in culture; assay type: cell-based; conditions: 18 h
Experimental: as §1

Compound: CC[C@H](C)[C@@H]1NC(=O)[C@H](CO)NC(=O)[C@H](CCCCN)NC(=O)[C@H]([C@@H](C)O)NC(=O)[C@H](Cc2c[nH]c3ccccc23)NC(=O)[C@@H](NC(=O)[C@H](Cc2ccccc2)NC(=O)[C@H](CCCCN)NC(=O)[C@H](CCCCN)NC(=O)[C@@H](NC(=O)[C@H](C)NC(=O)[C@H](CCCNC(=N)N)NC(=O)[C@H](CCCNC(=N)N)NC(=O)[C@@H](NC(=O)[C@H](CO)NC(=O)[C@H](CCCCN)NC(=O)[C@H](CC(C)C)NC(=O)[C@H](CC(C)C)NC(=O)[C@H](CCCNC(=N)N)NC(=O)[C@H](CCCCN)NC(=O)[C@H](Cc2ccccc2)NC(=O)[C@H](Cc2ccccc2)NC(=O)[C@@H](N)CCCCN)C(C)C)C(C)C)CSSC[C@@H](C(=O)O)NC(=O)[C@@H]2CCCN2C(=O)[C@H](CCCCN)NC(=O)[C@@H]2CCCN2C(=O)[C@@H]2CCCN2C1=O [H3TI] (H-KFFKRLLKSVRRAVKKFCWTKSIPPKPC-OH; disulfide 18-28)
- MIC Arcyria cinerea 08030209 [1]: — (no detectable activity in MIC assay in dose of 200 µg/mL or in trypsin inhibition assay at concentration of 160 μg/mL)
- MIC E. coli 08040726 [2]: 9.38 µg/mL (≈ 2.77 µM)
- pKi [3]: 5.26
- MIC Staphylococcus epidermidis [4]: — (no detectable activity in MIC assay in dose of 200 µg/mL or in trypsin inhibition assay at concentration of 160 μg/mL)
- MIC E. Coli 08032813 [5]: — (no detectable activity in MIC assay in dose of 200 µg/mL or in trypsin inhibition assay at concentration of 160 μg/mL)
- MIC Vibrio Parahaemolyticus [6]: 4.69 µg/mL (≈ 1.38 µM)
- MIC E. Coli 08040726 (second line with this strain number) [7]: — (no detectable activity in MIC assay in dose of 200 µg/mL or in trypsin inhibition assay at concentration of 160 μg/mL)
- MIC Vibrio harveyi [8]: 37.5 µg/mL (≈ 11.1 µM)
- MIC Bacillus subtilis 08042313 [9]: 9.38 µg/mL (≈ 2.77 µM)
- MIC S. Aureus 08032615 [10]: 37.5 µg/mL (≈ 11.1 µM)
- MIC K. Pneumoniae 08031012 [11]: — (no detectable activity in MIC assay in dose of 200 µg/mL or in trypsin inhibition assay at concentration of 160 μg/mL)
- MIC Enterococcus faecium 08052315 [12]: 9.38 µg/mL (≈ 2.77 µM)
- MIC Proteus mirabilis 1376 [13]: 37.5 µg/mL (≈ 11.1 µM)
- MIC Candida albicans 08030102 [14]: 4.69 µg/mL (≈ 1.38 µM)
- MIC Candida glabrata 08A802 [15]: 4.69 µg/mL (≈ 1.38 µM)
- MIC Escherichia coli ATCC25922 [16]: 37.5 µg/mL (≈ 11.1 µM)
- MIC P. Aeruginosa 08021015 [17]: 37.5 µg/mL (≈ 11.1 µM)
- MIC Vibrio brasiiensis [18]: 18.75 µg/mL (≈ 5.53 µM)
- MIC S. Aureus 08032810 [19]: — (no detectable activity in MIC assay in dose of 200 µg/mL or in trypsin inhibition assay at concentration of 160 μg/mL)
- MIC S. Maltophilia 090223 [20]: 18.75 µg/mL (≈ 5.53 µM)
- MIC Nocardia asteroides 08052412 [21]: 18.75 µg/mL (≈ 5.53 µM)
- MIC S. Aureus 08032706 [22]: — (no detectable activity in MIC assay in dose of 200 µg/mL or in trypsin inhibition assay at concentration of 160 μg/mL)
- MIC K. Pneumoniae 08040202 [23]: — (no detectable activity in MIC assay in dose of 200 µg/mL or in trypsin inhibition assay at concentration of 160 μg/mL)
- MIC Vibrio cholerae [24]: 75 µg/mL (≈ 22.1 µM)
- MIC Aeromonas veronii [25]: — (no detectable activity in MIC assay in dose of 200 µg/mL or in trypsin inhibition assay at concentration of 160 μg/mL)
- MIC Aeromonas sobria [26]: — (no detectable activity in MIC assay in dose of 200 µg/mL or in trypsin inhibition assay at concentration of 160 μg/mL)
- MIC E. Coli 08032823 [27]: 37.5 µg/mL (≈ 11.1 µM)
- MIC Edwardsiella tarda [28]: 37.5 µg/mL (≈ 11.1 µM)
